Where a name gives a salt, the structure may show the parent alone. Read-outs that look alike come from different tables or passages of the source.
Key:
Type in all cases: cell-based
[1] = test system: NB4 human promyelocitic leukaemia; experiment: Cytotoxicity (sulphorodamine B) on NB4 tumor cells; details: then 48 h in drug-free medium, read-out: IC50 ± SD, NB4
Protocol: To test the effects of the compounds on cell growth, NB4 human promyelocitic leukaemia, NCI-H460 non-small cell carcinoma cells and HCT-116 human colon carcinoma cells were used. NB4 and NCI-H460 tumor cells were grown RPMI 1640 containing 10% fetal bovine serum (GIBCO), whereas HCT-116 tumor cells were grown in McCoy's 5A containing 10% fetal bovine serum (GIBCO).
(§1) Tumor cells were seeded in 96-well tissue culture plates at approximately 10% confluence and were allowed to attach and recover for at least 24 h. […] The plates were incubated for 24 h at 37° C. At the end of the treatment, for NB4 tumor cells in suspension, the procedure was performed as follows: medium culture was removed by centrifugation of the plates at 1600×g for 10 min and the surnatant was removed. 250 μl PBS were added, then the plates were centrifuged at 1600×g for 10 min, the surnatant was removed. 200 μl/well of medium culture RPMI 1640 containing 10% FCS were added and the plates were incubated at 37° C. for other 48 h. The plates were centrifuged again at 1600×g for 10 min, the medium culture was removed and 200 μl PBS and 50 μl of cold 80% TCA were added. The plates were incubated on ice for at least 1 h. TCA was removed, the plates were washed 3 times for immersion in distilled-water and dried before on paper, then in a thermostater at 40° C. Subsequently 200 μl of 0.4% sulphorodamine B in 1% acetic acid were added. The plates were incubated at room temperature for other 30 min. Sulphorodamine B was removed, the plates were washed for immersion in 1% acetic acid for 3 times, then they were washed and dried on paper. 200 μl Tris 10 mM were added, the plates were kept under stirring for 20 min. The survival cell was determined as optical density by a Multiskan spectrofluorimeter at 540 nm. For the tumor cells in adhesion (NCI-H460 and HCT-116), the procedure was as above mentioned, except that the at the end of the treatment, the plates were washed by remotion of the surnatant and addition of PBS 3 times and not by centrifugation. Also the last day of the assay, the surnatant was removed without centrifugation.
(§2) The amount of cells killed was calculated as the percentage decrease in sulphorodamine B binding compared with control cultures.

[2] = test system: HCT-116 human colon carcinoma cells; experiment: Cytotoxicity (sulphorodamine B) on HCT-116 tumor cells; details: HCT-116 cells, 24 h treatment, then 48 h in drug-free medium, read-out: IC50 ± SD, HCT-116
Protocol: as §1, with “200 μl/well of medium culture RPMI 1640 containing 10% FCS were added and the plates were incubated at 37° C. for other 48 h.” left out, “For the tumor cells in adhesion (NCI-H460 and HCT-116), the procedure was as above mentioned, except that the at the end of the treatment, the plates were washed by remotion of the surnatant and addition of PBS 3 times and not by centrifugation.” left out
as §2

[3] = test system: NCI-H460 non-small cell carcinoma cells; experiment: Cytotoxicity (sulphorodamine B) on NCI-H460 tumor cells; details: 24 h treatment, then 48 h in drug-free medium, read-out: IC50 ± SD, NCI-H460
Protocol: as §1, with “200 μl/well of medium culture RPMI 1640 containing 10% FCS were added and the plates were incubated at 37° C. for other 48 h.” left out, “For the tumor cells in adhesion (NCI-H460 and HCT-116), the procedure was as above mentioned, except that the at the end of the treatment, the plates were washed by remotion of the surnatant and addition of PBS 3 times and not by centrifugation.” left out
as §2

[4] = test system: NB4, NCI-H460 and HCT-116 tumor cells; experiment: Cytotoxicity summarised over the three tumor cell lines; details: Homo sapiens; mean over NB4, NCI-H460, HCT-116; 24 h of treatment
Protocol: as §1, with “200 μl/well of medium culture RPMI 1640 containing 10% FCS were added and the plates were incubated at 37° C. for other 48 h.” left out, “For the tumor cells in adhesion (NCI-H460 and HCT-116), the procedure was as above mentioned, except that the at the end of the treatment, the plates were washed by remotion of the surnatant and addition of PBS 3 times and not by centrifugation.” left out
as §2

[5] = Homo sapiens, NB-4, 24 h treatment

Structure (SMILES): O=C(CCCCC(O)C(=O)Nc1ccccc1)NO (racemic) [Compound 5a, (±)-2-Hydroxyheptanedioic acid 7-hydroxyamide 1-phenylamide]
- IC50 [1, 5]: 3.7 ± 0.6 µM
- IC50 ([2]; Homo sapiens): 8.6 ± 0.2 µM
- IC50 ([3]; Homo sapiens): 13.7 ± 2.6 µM

Structure (SMILES): COC(CCCCC(=O)NO)C(=O)Nc1ccccc1 (racemic) [Compound 5b, (±)-2-Methoxyheptanedioic acid 7-hydroxyamide 1-phenylamide]
- IC50 [1, 5]: 3.5 ± 0.4 µM
- IC50 ([2]; Homo sapiens): 5 ± 0.1 µM
- IC50 ([3]; Homo sapiens): 5.7 ± 0.5 µM

Structure (SMILES): C=CCOC(CCCCC(=O)NO)C(=O)Nc1ccccc1 (racemic) [Compound 5c, (±)-2-Allyloxyheptanedioic acid 7-hydroxyamide 1-phenylamide]
- IC50 [1, 5]: 4.5 ± 0.4 µM
- IC50 ([2]; Homo sapiens): 4.3 ± 0.2 µM
- IC50 ([3]; Homo sapiens): 8.6 ± 0.3 µM

Structure (SMILES): C=C(C)COC(CCCCC(=O)NO)C(=O)Nc1ccccc1 (racemic) [Compound 5d, (±)-2-(2-Methylallyloxy)heptanedioic acid 7-hydroxyamide 1-phenylamide]
- IC50 [1, 5]: 9.6 ± 0.8 µM
- IC50 ([2]; Homo sapiens): 12.4 ± 0.2 µM
- IC50 ([3]; Homo sapiens): 14.7 ± 1.6 µM

Structure (SMILES): CCCOC(CCCCC(=O)NO)C(=O)Nc1ccccc1 (racemic) [Compound 5e, (±)-2-Propoxyheptanedioic acid 7-hydroxyamide 1-phenylamide]
- IC50 [1, 5]: 4.1 ± 0.3 µM
- IC50 ([2]; Homo sapiens): 8.5 ± 0.3 µM
- IC50 ([3]; Homo sapiens): 10.4 ± 1.2 µM

Structure (SMILES): O=C(CCCCC(OCc1ccccc1)C(=O)Nc1ccccc1)NO (racemic) [Compound 5f, (±)-2-Benzyloxyheptanedioic acid 7-hydroxyamide 1-phenylamide]
- IC50 [1, 5]: > 5 µM
- IC50 ([2]; Homo sapiens): 2.4 ± 0.06 µM
- IC50 ([3]; Homo sapiens): 5.5 ± 0.6 µM

Structure (SMILES): COc1ccc(COC(CCCCC(=O)NO)C(=O)Nc2ccccc2)cc1 (racemic) [Compound 5g, (±)-2-(4-Methoxybenzyloxy)heptanedioic acid 7-hydroxyamide 1-phenylamide]
- IC50 [1, 5]: 1 ± 0.1 µM
- IC50 ([2]; Homo sapiens): 1.3 ± 0.06 µM
- IC50 ([3]; Homo sapiens): 2 ± 0.3 µM

Structure (SMILES): O=C(CCCCCC(O)C(=O)Nc1ccccc1)NO (racemic) [Compound 9a, (±)-2-Hydroxyoctanedioic acid 8-hydroxyamide 1-phenylamide]
- IC50 [1, 5]: 0.5 ± 0.03 µM
- IC50 ([2]; Homo sapiens): 0.7 ± 0.02 µM
- IC50 ([3]; Homo sapiens): 1 ± 0.09 µM
- IC50 [4]: < 1 µM

Structure (SMILES): COC(CCCCCC(=O)NO)C(=O)Nc1ccccc1 (racemic) [Compound 9b, (±)-2-Methoxyoctanedioic acid 8-hydroxyamide 1-phenylamide]
- IC50 [1, 5]: 0.5 ± 0.03 µM
- IC50 ([2]; Homo sapiens): 0.9 ± 0.04 µM
- IC50 ([3]; Homo sapiens): 1.2 ± 0.1 µM
- IC50 [4]: < 1 µM

Structure (SMILES): C=CCOC(CCCCCC(=O)NO)C(=O)Nc1ccccc1 (racemic) [Compound 9c, (±)-2-Allyloxyoctanedioic acid 8-hydroxyamide 1-phenylamide]
- IC50 [1, 5]: 0.4 ± 0.02 µM
- IC50 ([2]; Homo sapiens): 1 ± 0.1 µM
- IC50 ([3]; Homo sapiens): 1.8 ± 0.1 µM

Structure (SMILES): COc1ccc(COC(CCCCCC(=O)NO)C(=O)Nc2ccccc2)cc1 (racemic) [Compound 9d, (±)-2-(4-Methoxybenzyloxy)octanedioic acid 8-hydroxyamide 1-phenylamide]
- IC50 [1, 5]: 0.1 ± 0.01 µM
- IC50 ([2]; Homo sapiens): 0.2 ± 0.006 µM
- IC50 ([3]; Homo sapiens): 0.5 ± 0.02 µM
- IC50 [4]: < 1 µM

Structure (SMILES): O=C(CCCCCC(OCc1ccc(C(F)(F)F)cc1)C(=O)Nc1ccccc1)NO (racemic) [Compound 9e, (±)-2-(4-Trifluoromethylbenzyloxy)octanedioic acid 8-hydroxyamide 1-phenylamide]
- IC50 [1, 5]: 0.2 ± 0.002 µM
- IC50 ([2]; Homo sapiens): 0.4 ± 0.03 µM
- IC50 ([3]; Homo sapiens): 0.5 ± 0.06 µM
- IC50 [4]: < 1 µM

Structure (SMILES): O=C(CCCCCC(OCc1ccc(Br)cc1)C(=O)Nc1ccccc1)NO (racemic) [Compound 9f, (±)-2-(4-Bromobenzyloxy)octanedioic acid 8-hydroxyamide 1-phenylamide]
- IC50 [1, 5]: 0.06 ± 0.004 µM
- IC50 ([2]; Homo sapiens): 0.3 ± 0.05 µM
- IC50 ([3]; Homo sapiens): 0.5 ± 0.04 µM
- IC50 [4]: < 1 µM

Structure (SMILES): Cc1ccc(COC(CCCCCC(=O)NO)C(=O)Nc2ccccc2)cc1 (racemic) [Compound 9g, (±)-2-(4-Methylbenzyloxy)octanedioic acid 8-hydroxyamide 1-phenylamide]
- IC50 [1, 5]: 0.1 ± 0.01 µM
- IC50 ([2]; Homo sapiens): 0.3 ± 0.009 µM
- IC50 ([3]; Homo sapiens): 0.6 ± 0.01 µM
- IC50 [4]: < 1 µM

Structure (SMILES): COc1cccc(COC(CCCCCC(=O)NO)C(=O)Nc2ccccc2)c1 (racemic) [Compound 9h, (±)-2-(3-Methoxybenzyloxy)octanedioic acid 8-hydroxyamide 1-phenylamide]
- IC50 [1, 5]: 0.2 ± 0.007 µM
- IC50 ([2]; Homo sapiens): 0.6 ± 0.1 µM
- IC50 ([3]; Homo sapiens): 0.6 ± 0.03 µM
- IC50 [4]: < 1 µM

Structure (SMILES): COc1cccc(COC(CCCCCC(=O)NO)C(=O)N(Cc2cccc(OC)c2)c2ccccc2)c1 (racemic) [Compound 9i, (±)-2-(3-methoxybenzyloxy)octanedioic acid 8-hydroxyamide 1-[(3-methoxybenzyl)phenylamide]]
- IC50 ([1]; 24 h treatment): 4 ± 0.7 µM
- IC50 [2]: 7.5 ± 0.4 µM
- IC50 [3]: 7.4 ± 0.5 µM

Structure (SMILES): O=C(CCCCCCC(O)C(=O)Nc1ccccc1)NO (racemic) [Compound 13a, (±)-2-Hydroxynonanedioic acid 9-hydroxyamide 1-phenylamide]
- IC50 [1, 5]: 0.9 ± 0.1 µM
- IC50 ([2]; Homo sapiens): 1.6 ± 0.05 µM
- IC50 ([3]; Homo sapiens): 3.6 ± 0.8 µM

Structure (SMILES): COC(CCCCCCC(=O)NO)C(=O)Nc1ccccc1 (racemic) [Compound 13b, (±)-2-Methoxynonanedioic acid 9-hydroxyamide 1-phenylamide]
- IC50 [1, 5]: 0.8 ± 0.03 µM
- IC50 ([2]; Homo sapiens): 1.1 ± 0.009 µM
- IC50 ([3]; Homo sapiens): 1.9 ± 0.1 µM

Structure (SMILES): C=CCOC(CCCCCCC(=O)NO)C(=O)Nc1ccccc1 (racemic) [Compound 13c, (±)-2-Allyloxynonanedioic acid 9-hydroxyamide 1-phenylamide]
- IC50 [1, 5]: 0.6 ± 0.06 µM
- IC50 ([2]; Homo sapiens): 1 ± 0.05 µM
- IC50 ([3]; Homo sapiens): 1.5 ± 0.3 µM

Structure (SMILES): COc1cc2cc(c1)COc1ccccc1NC(=O)C(CCCCCC(=O)NO)OCC=C2 (racemic) [Compound 32, (±)-6-(19-Methoxy-11-oxo-3,13-dioxa-10-azatricyclo[15.3.1.04,9]henicosa-1(21),4(9),5,7,15,17,19-heptaen-12-yl)hexanoic acid hydroxyamide]
- IC50 ([2]; Homo sapiens): 0.4 ± 0.03 µM
- IC50 ([3]; Homo sapiens): 0.9 ± 0.08 µM
- IC50 [4]: < 1 µM

Structure (SMILES): O=C(CCCCCC1OCCCCCCOc2ccncc2NC1=O)NO (racemic) [Compound 46, (±)-6-(14-Oxo-6,7,8,9,10,11,14,15-octahydro-13H-5,12-dioxa-2,15-diazabenzocyclotridecen-13-yl)hexanoic acid hydroxyamide]
- IC50 ([2]; Homo sapiens): 13 ± 1.7 µM
- IC50 ([3]; Homo sapiens): 20 µM

Structure (SMILES): CO[C@H](CCCCC(=O)NO)C(=O)Nc1ccccc1 [(R)-5b, 2-(R)-Methoxyheptanedioic acid 7-hydroxyamide 1-phenylamide]
- IC50 [1, 5]: 4 ± 0.6 µM
- IC50 ([2]; Homo sapiens): 7.8 ± 0.5 µM
- IC50 ([3]; Homo sapiens): 9.6 ± 0.5 µM

Structure (SMILES): CO[C@@H](CCCCC(=O)NO)C(=O)Nc1ccccc1 [(S)-5b, 2-(S)-Methoxyheptanedioic acid 7-hydroxyamide 1-phenylamide]
- IC50 [1, 5]: 3.5 ± 0.3 µM
- IC50 ([2]; Homo sapiens): 6.8 ± 0.3 µM
- IC50 ([3]; Homo sapiens): 7.8 ± 0.5 µM

Structure (SMILES): COc1ccc(CO[C@@H](CCCCCC(=O)NO)C(=O)Nc2ccccc2)cc1 [(S)-9d, 2-(S)-(4-Methoxybenzyloxy)octanedioic acid 8-hydroxyamide 1-phenylamide]
- IC50 ([1]; 24 h treatment): 0.1 ± 0.002 µM
- IC50 [2]: 0.2 ± 0.007 µM
- IC50 [3]: 0.4 ± 0.03 µM

Structure (SMILES): O=C(CCCCC[C@@H]1NCCCCCCOc2ccccc2NC1=O)NO [(S)-42a, 6-(6-Oxo-5,6,7,8,9,10,11,12,13,14-decahydro-15-oxa-5,8-diazabenzocyclotridecen-7-(S)yl)hexanoic acid hydroxyamide hydrochloride]
- IC50 ([2]; Homo sapiens): 0.8 ± 0.07 µM
- IC50 ([3]; Homo sapiens): 1.1 ± 0.07 µM
